{"source": "patent US20230083015A1", "about": "“SMALL MOLECULE DEGRADERS OF STAT3” (THE REGENTS OF THE UNIVERSITY OF MICHIGAN, priority 2019, published 2023)", "assay_type_in_all_cases": "cell-based", "key": {"mutated STAT3 proteins": {"target": "T1, mutated STAT3 proteins (Homo sapiens, UniProt P40763, Y705F)", "T1 construct": "endogenous in cells; host or cells: DLD-1 (Y705F)", "T1 sequence (P40763 2-770 Y705F)": "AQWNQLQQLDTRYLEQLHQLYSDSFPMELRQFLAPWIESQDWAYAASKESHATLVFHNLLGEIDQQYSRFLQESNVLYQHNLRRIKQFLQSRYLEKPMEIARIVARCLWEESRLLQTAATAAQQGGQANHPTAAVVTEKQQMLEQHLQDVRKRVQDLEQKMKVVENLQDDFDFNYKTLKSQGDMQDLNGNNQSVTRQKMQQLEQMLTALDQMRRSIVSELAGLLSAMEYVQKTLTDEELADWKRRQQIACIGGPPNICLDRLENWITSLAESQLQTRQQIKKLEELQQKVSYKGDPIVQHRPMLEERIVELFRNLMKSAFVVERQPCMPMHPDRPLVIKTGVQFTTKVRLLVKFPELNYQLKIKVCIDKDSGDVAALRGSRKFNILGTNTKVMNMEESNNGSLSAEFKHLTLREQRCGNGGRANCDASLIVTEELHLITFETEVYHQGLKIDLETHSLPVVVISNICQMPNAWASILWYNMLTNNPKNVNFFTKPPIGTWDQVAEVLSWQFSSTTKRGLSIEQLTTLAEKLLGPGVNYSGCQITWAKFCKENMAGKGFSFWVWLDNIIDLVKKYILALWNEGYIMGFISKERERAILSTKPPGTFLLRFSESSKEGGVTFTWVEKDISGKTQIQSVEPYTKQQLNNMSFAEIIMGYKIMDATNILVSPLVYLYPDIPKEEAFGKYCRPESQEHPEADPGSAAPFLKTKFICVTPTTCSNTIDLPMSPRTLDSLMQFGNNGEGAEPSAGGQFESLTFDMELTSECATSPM", "assay": "Western blotting of total STAT3 and p-STAT3 (Y705) in DLD-1 and DLD-1 (Y705F) cells", "description": "FIG. 9 is an image showing the Western blotting analysis of total STAT3 protein and phosphorylated STAT3 (Y705) in DLD-1 and DLD-1 (Y705F) cells treated with Cpd.\n(§1) In vitro cultured cells or xenograft tumors were lysed 1× Cell Lysis Buffer (Cell Signaling Technology, #9803), resolved by SDS-PAGE NuPAGE gel (Thermo Fisher Scientific), and transferred to a PVDF membrane (Bio Rad). For chemiluminescence immunoblotting, membranes were blocked for 1 h using 5% Blotting-Grade Blocker (#1706404, Bio Rad) in 1× Tris-buffered saline with Tween 20 (TBST, Pierce). Antibodies used were: rabbit mAbs for STAT3 (Cell Signaling Technology, #4368, #12640) and p-STAT3 (Y705) (Cell Signaling Technology, #9245, #52075). HRP conjugated goat anti-rabbit IgG (H+L) (#A27036) secondary antibodies was from Thermo Fisher Scientific. GAPDH (Santa Cruz Technology, sc-47724HRP) and actin (Santa Cruz Technology, sc-8432HRP, sc-47778HRP) were loading controls. For fluorescent immunoblotting, membranes were blocked using Odyssey TBS Blocker Buffer (LI-COR). IRDye 680RD and 800CW Dye-labeled secondary antibodies (LI-COR) were used. The washed membranes were scanned using Odyssey CLx imager (LI-COR). The intensity of Western blot signaling was quantitated using the Odyssey software."}, "[1]": {"test_system": "ALCL and AML cell lines expressing high levels of STAT3", "assay": "Cell growth inhibition in ALCL and AML cell lines", "text": "FIG. 12 is a table showing that Cpd."}, "STAT3 [2]": {"target": "T2, STAT3 (Homo sapiens, UniProt P40763)", "T2 sequence (P40763 whole entry)": "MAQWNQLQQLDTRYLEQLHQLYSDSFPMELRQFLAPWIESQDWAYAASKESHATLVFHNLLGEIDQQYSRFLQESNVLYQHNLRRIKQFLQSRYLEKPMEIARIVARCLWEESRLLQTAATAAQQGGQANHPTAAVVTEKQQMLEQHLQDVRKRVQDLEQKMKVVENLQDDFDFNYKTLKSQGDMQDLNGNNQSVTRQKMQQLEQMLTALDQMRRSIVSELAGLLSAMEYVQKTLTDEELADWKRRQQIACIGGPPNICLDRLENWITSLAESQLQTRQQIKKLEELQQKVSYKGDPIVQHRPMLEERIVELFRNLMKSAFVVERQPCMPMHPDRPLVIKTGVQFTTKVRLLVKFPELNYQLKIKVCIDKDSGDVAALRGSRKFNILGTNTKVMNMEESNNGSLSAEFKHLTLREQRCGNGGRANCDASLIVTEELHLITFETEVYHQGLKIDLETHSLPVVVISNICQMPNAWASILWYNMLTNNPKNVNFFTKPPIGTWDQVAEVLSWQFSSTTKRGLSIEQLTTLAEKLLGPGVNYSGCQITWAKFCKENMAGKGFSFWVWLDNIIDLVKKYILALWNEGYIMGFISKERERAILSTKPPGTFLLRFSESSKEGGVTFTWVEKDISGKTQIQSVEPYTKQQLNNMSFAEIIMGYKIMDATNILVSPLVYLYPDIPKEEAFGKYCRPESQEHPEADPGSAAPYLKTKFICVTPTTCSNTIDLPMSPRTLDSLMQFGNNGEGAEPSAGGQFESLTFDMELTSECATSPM", "assay": "Western blotting of total STAT1, STAT2, STAT3, STAT4, STAT5 and STAT6 protein in SU-DHL-1 and SUP-M2 cells", "set-up": "endogenous in cells", "description": "FIG. 11 is an image showing the Western blotting analysis of total STAT1, STAT2, STAT3, STAT4, STAT5, and STAT6 protein in SU-DHL-1 and SUP-M2 cells treated with Cpd. Nos. 36 and 37. Cpd.\nas §1"}, "STAT3 [3]": {"target": "T2, STAT3", "assay": "Western blotting of total STAT1, STAT2, STAT3, STAT5 and STAT6 protein in Molm-16 cells", "set-up": "endogenous in cells; host or cells: MOLM-16", "description": "FIG. 10 is an image showing the Western blotting analysis of total STAT1, STAT2, STAT3, STAT5, and STAT6 protein in Molm-16 cells treated with Cpd. No. 36. Cpd.\nas §1"}}}
{"smiles": "NC(=O)CC[C@H](NC(=O)[C@@H]1CC[C@@H]2CCN(C(=O)CCCCCC#Cc3cccc4c3CN(C3CCC(=O)NC3=O)C4=O)C[C@H](NC(=O)c3cc4cc(C(F)(F)P(=O)(O)O)ccc4[nH]3)C(=O)N21)C(=O)NC(c1ccccc1)c1ccccc1", "note": "(stereo partly drawn) [Cpd. No. 36, ((2-(((5S,8S,10aR)-8-(((S)-5-amino-1-(benzhydrylamino)-1,5-dioxopentan-2-yl)carbamoyl)-3-(8-(2-(2,6-dioxopiperidin-3-yl)-1-oxoisoindolin-4-yl)oct-7-ynoyl)-6-oxodecahydropyrrolo[1,2-a][1,5]diazocin-5-yl)carbamoyl)-1H-indol-5-yl)difluoromethyl)phosphonic Acid]", "values": [{"measurement": "degradation of mutated STAT3 protein (Western blot)", "setting": "mutated STAT3 proteins", "result": "degrades mutated STAT3 proteins"}, {"measurement": "cell growth inhibition", "setting": "[1]", "result": "inhibits cell growth"}, {"measurement": "selectivity of STAT3 degradation over other STAT members (Western blot)", "setting": "STAT3 [2]", "result": "specifically degrades STAT3 protein over other STAT members"}, {"measurement": "selectivity of STAT3 degradation over other STAT members (Western blot)", "setting": "STAT3 [3]", "result": "specifically degrades STAT3 protein over other STAT members"}]}
